Measured values reported in US10017481B2, “Conformationally constrained, fully synthetic macrocyclic compounds” (POLYPHOR AG, priority 2012, dated 2018).

What was measured:
Assay type in all cases: in vitro ADME
[1] = Metabolic stability assay, human liver microsomes; conditions: for half-life at 10 μM: both sexes, liver microsomes, 1 mg/ml protein, read-out: Metabolic Stability T ½ [min] hum; for half-life at 10 μM / Metabolic Stability 60 min hum [% remain.]: human microsomes, 37° C., 10 μM
Procedure: (§1) 5. Plasma and Metabolic Stability Assays
(§2) Example compounds were dissolved in DMSO/H2O 90:10 to a final concentration of 10 mM for plasma stability determination and metabolic stability determination.
(§3) The assays were conducted according to literature precedents (F. P. Guengerich, Analysis and Characterization of Enzymes; in: Principles and Methods of Toxicology, A. W. Hayes (Ed.) Raven Press: New York, 1989, 777-813; R. Singh et al., In vitro metabolism of a potent HIV-protease inhibitor (141W94) using rat, monkey and human liver S9, Rapid Commun. Mass Spectrom. 1996, 10, 1019-1026).
(§4) Metabolic Stability Assay
(§5) Microsomes from a human 50 donor mixed gender pool and 1:1 mixtures of microsomes from CD-1 mouse single-gender pools are purchased from Celsis (Belgium). The enzymatic reaction is performed in a buffer containing an NADPH regeneration system and microsomes with the following end concentrations: 100 mM potassium phosphate buffer (all from Sigma), 1 mg/mL glucose-6-phosphate, 1 mg/mL β-nicotinamide adenine dinucleotide phosphate (NADP), 0.65 mg/mL magnesium chloride, 0.8 units/mL of glucose-6-phosphate dehydrogenase (prediluted with 5 mM citrate buffer), 10 μM compound and 1 mg/ml microsomal protein. Compounds are incubated at 37° C. in duplicates and samples are taken after 0, 5, 10, 20 and 60 minutes. After acetonitrile precipitation (3 volumes), shaking (2 minutes, 600 rpm) followed by centrifugation (10 minutes, 3200 g), the supernatant is dried reconstituted in the suitable solvent (cf. Table 33) and analyzed by HPLC/MS/MS. Metabolic turnover is expressed in % of the initial 0 minutes value and half life T½ (min) is calculated. Verapamil for human and propranolol for mouse are used as reference and are assayed with every experimental set.

[2] = Metabolic stability assay, CD-1 mouse microsomes; conditions: for Metabolic Stability 60 min mouse/(rat) [% remain.] / half-life at 10 μM: CD-1 mouse microsomes, 10 μM, 37° C.; for half-life at 10 μM: both sexes, 1 mg/ml protein, read-out: Metabolic Stability T ½ [min] mouse/(rat)
Procedure: as §1, §2, §3, §4, §5

[3] = Plasma stability assay, human plasma; conditions: for Plasma Stability 240 min hum [% remain.]: human plasma, 10 μM, 37° C.
Procedure: (§6) 5. Plasma and Metabolic Stability Assays Example compounds were dissolved in DMSO/H2O 90:10 to a final concentration of 10 mM for plasma stability determination and metabolic stability determination. The assays were conducted according to literature precedents (F. P. Guengerich, Analysis and Characterization of Enzymes; in: Principles and Methods of Toxicology, A. W. Hayes (Ed.) Raven Press: New York, 1989, 777-813; R. Singh et al., In vitro metabolism of a potent HIV-protease inhibitor (141W94) using rat, monkey and human liver S9, Rapid Commun. Mass Spectrom. 1996, 10, 1019-1026). Plasma Stability Assay Human plasma (Blutspendedienst SRK, Basel) and CD-1 mouse plasma (mixed gender pool >50 animals, Innovative Research, Calif., USA) are both sodium citrate stabilized. The assay is performed in triplicates at 10 μM compound concentration and 37° C. Samples are taken at 0, 15, 30, 60, 120 and 240 minutes and stopped by precipitation with 3 volumes of acetonitrile/formic acid 98:2 and shaking (2 minutes, 600 rpm) followed by filtration (−20 mm Hg). The filtrate is collected. The filtrate (100 μL) is evaporated and reconstituted in the suitable solvent (cf. Table 33) to be analyzed by HPLC/MS/MS. The resulting peak area counts are expressed in percent of the 0 value and used to determine the endpoint stability in % and the half life T in minutes. In order to monitor assay integrity the degradation of propantheline is assayed with every experimental set.

[4] = Plasma stability assay, CD-1 mouse plasma; conditions: for Plasma Stability 240 min mouse/(rat) [% remain.]: CD-1 mouse plasma, 10 μM, 37° C.; for half-life at 10 μM: both sexes, CD-1, mouse
Procedure: as §6

| SMILES | half-life at 10 μM [1] [min] | Metabolic Stability 60 min hum [% remain.] [1] [% remain.] | Metabolic Stability 60 min mouse/(rat) [% remain.] [2] [% remain.] | half-life at 10 μM [2] [min] | Plasma Stability 240 min hum [% remain.] [3] [% remain.] | half-life at 10 μM ([3]; human, plasma) [h] | Plasma Stability 240 min mouse/(rat) [% remain.] [4] [% remain.] | half-life at 10 μM ([4]; plasma) [h] | Metabolic Stability T ½ [min] hum ([1]; human, microsomes) [min] | Metabolic Stability T ½ [min] mouse/(rat) ([2]; microsomes) [min] | Plasma Stability T ½ [min] hum ([3]; human, plasma) [min] | Plasma Stability T ½ [min] mouse/(rat) ([4]; plasma) [min] |
| --- | --- | --- | --- | --- | --- | --- | --- | --- | --- | --- | --- | --- |
| COc1ccc2c(c1)-c1cccc(c1)C(=O)N(C)[C@H](C(=O)NCC(=O)O)CCC(=O)N[C@H](C)CO2 [Ex. 57, 2-({[(10R,15S)-4-methoxy-10,16-dimethyl-12,17-dioxo-8-oxa-11,16-diazatricyclo[16.3.1.0^2,7]docosa-1(22),2,4,6,18,20-hexaen-15-yl]carbonyl}amino)acetic acid] | > 60 | 100 | 100 | > 60 | 100 | > 4 | 74 | > 4 | – | – | – | – |
| COc1ccc2c(c1)-c1cccc(c1)C(=O)N(C)[C@H](C(=O)N(C)CCN(C)C)CCC(=O)N[C@H](C)CO2 [Ex. 59, (10R15S)-N-[2-(dimethylamino)ethyl]-4-methoxy-N,10,16-trimethyl-12,17-dioxo-8-oxa-11,16-diazatricyclo[16.3.1.0^2,7]docosa-1(22),2,4,6,18,20-hexaene-15-carboxamide] | – | – | – | – | – | – | – | – | >60 | >60 | >240 | >240 |
| C[C@H]1COc2cccc(c2)-c2cccc(c2)C(=O)N(C)[C@H](C(=O)O)CCC(=O)N1 [Ex. 69, (9S,14S)-9,15-dimethyl-11,16-dioxo-7-oxa-10,15-diazatricyclo[15.3.1.1^2,6]docosa-1(21),2(22),3,5,17,19-hexaene-14-carboxylic acid] | > 60 | 100 | 100 | > 60 | 91 | > 4 | 45 | 3.33 | – | – | – | – |
| CNC(=O)[C@@H]1CCC(=O)N[C@@H](C)COc2cccc(c2)-c2cccc(c2)C(=O)N1C [Ex. 70, (9S,14S)-N,9,15-trimethyl-11,16-dioxo-7-oxa-10,15-diazatricyclo[15.3.1.1^2,6]docosa-1(21),2(22),3,5,17,19-hexaene-14-carboxamide] | > 60 | 100 | 77 | > 60 | 99 | > 4 | 61 | > 4 | – | – | – | – |
| C[C@H]1COc2cccc(c2)-c2cccc(c2)C(=O)N(C)[C@H](C(N)=O)CCC(=O)N1 [Ex. 71, (9S,14S)-9,15-dimethyl-11,16-dioxo-7-oxa-10,15-diazatricyclo[15.3.1.1^2,6]docosa-1(21),2(22),3,5,17,19-hexaene-14-carboxamide] | > 60 | 100 | 89 | > 60 | 100 | > 4 | 92 | > 4 | – | – | – | – |
| C[C@H]1COc2cccc(c2)-c2cccc(c2)C(=O)N(C)[C@H](C(=O)Nc2ccccc2)CCC(=O)N1 [Ex. 72, (9S,14S)-9,15-dimethyl-11,16-dioxo-N-phenyl-7-oxa-10,15-diazatricyclo[15.3.1.1^2,6] docosa-1(21),2(22),3,5,17,19-hexaene-14-carboxamide] | 22 | 14 | 30 | 35 | 100 | > 4 | 65 | > 4 | – | – | – | – |
